Laboratory results reported in patent US12054498B2, “Heteroaromatic macrocyclic ether chemotherapeutic agents” (Nuvalent, Inc., priority 2020, dated 2024).

Tests used:
ALK-wt = biological target: T1, ALK-wt (Homo sapiens, UniProt Q9UM73); test: Biochemical kinase assay, ALK-wt kinase domain; settings: apparent inhibitory constant, Morrison equation; ATP 2 mM in substrate solution; read-out: ALK-wt Ki^app
T1 construct: purchased Carna 08-518
In short: (§1)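 Apparent Ki values come from fitting initial reaction rates against inhibitor concentration to the Morrison equation. Rates were taken from the linear phase of fluorogenic substrate phosphorylation (AQT0101 for ALK and ROS1, AQT0104 for TRKA; 26 μM in substrate solution with 2 mM ATP), monitored at 485 nm over 120 min at 30° C.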

ALK L1196M/G1202R = biological target: T2, ALK L1196M/G1202R (Homo sapiens, UniProt Q9UM73, G1202R/L1196M); test: Biochemical kinase assay, ALK L1196M/G1202R kinase domain; settings: apparent inhibitory constant, Morrison equation; ATP 2 mM in substrate solution; read-out: ALK-L1196M-G1202R Ki^app
T2 construct: purchased SignalChem A19-12NG
In short: as §1

ROS1-wt = biological target: T3, ROS1-wt (Homo sapiens, UniProt P08922); test: Biochemical kinase assay, ROS1-wt kinase domain; settings: apparent inhibitory constant, Morrison equation; ATP 2 mM in substrate solution; read-out: ROS1-wt Ki^app
T3 construct: purchased Carna 08-163
In short: (§2)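 Compounds, as 100-fold DMSO stocks, were dispensed first, then substrate mix was added (ATP 2 mM, AQT0101 26 μM, in 50 mM HEPES pH 7.5/10 mM MgCl2). Reactions ran at 30 °C with fluorescence logged every 2 min over 120 min. Apparent inhibition constants came from fitting rates to Morrison's tight-binding equation.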

ROS1-G2032R = biological target: T4, ROS1-G2032R (Homo sapiens, UniProt P08922, G2032R); test: Biochemical kinase assay, ROS1-G2032R kinase domain; settings: apparent inhibitory constant, Morrison equation; ATP 2 mM in substrate solution; read-out: ROS1-G2032R Ki^app
T4 construct: purchased SignalChem R14-12BG
In short: as §2

TRKA-wt = biological target: T5, TRKA-wt (Homo sapiens, UniProt P04629); test: Biochemical kinase assay, TRKA-wt kinase domain; settings: apparent inhibitory constant, Morrison equation; ATP 2 mM in substrate solution; read-out: TRKA-wt Ki^app
T5 construct: or TRKA-wt (1 nM, BPS Bio, 40280) kinase domains in buffer; purchased BPS Bio 40280
In short: as §1

[1] = biological target: T6, Ba/F3 cells CD74-ROS1 wild-type (wt) (Homo sapiens, UniProt P08922); test: Ba/F3 cell proliferation assay, CD74-ROS1 wild-type; format: cell-based; settings: 72 hours, CellTiter-Glo
T6 construct: fusion of the C-terminus of ROS1 with the N-terminus of various partner proteins; host or cells: Ba/F3 (RIKEN), retroviral pMSCV-puro; the other entry of the earlier key: CD74 (P04233, HLA class II histocompatibility antigen gamma chain)
In short: (§3)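 IL-3-independent Ba/F3 CD74-ROS1 lines, puromycin-selected monoclones; 1,000 cells/well, plated 1 d before dosing; 3-fold serial dilutions, 72 h; CellTiter-Glo luminescence; IC50 by 4-parameter logistic regression.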

[2] = biological target: T7, Ba/F3 cells CD74-ROS1 G2032R (Homo sapiens, UniProt P08922, G2032R); test: Ba/F3 cell proliferation assay, CD74-ROS1 G2032R; format: cell-based; settings: 72 hours, CellTiter-Glo
T7 construct: fusion of the C-terminus of ROS1 with the N-terminus of various partner proteins; host or cells: Ba/F3 (RIKEN), retroviral pMSCV-puro; the other entry of the earlier key: CD74 (P04233, HLA class II histocompatibility antigen gamma chain)
In short: as §3

[3] = biological target: T8, Ba/F3 cells EML4-ALK wt (variant 1) (Homo sapiens, UniProt Q9UM73); test: Ba/F3 cell proliferation assay, EML4-ALK wt (variant 1); format: cell-based; settings: 72 hours, CellTiter-Glo
T8 construct: echinoderm microtubule-associated protein-like 4 (EML4) gene and the ALK tyrosine kinase domain; host or cells: Ba/F3 (RIKEN), retroviral pMSCV-puro; the other entry of the earlier key: EML4 (Q9HC35, Echinoderm microtubule-associated protein-like 4)
In short: (§4)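 Ba/F3 lines stably expressing the fusion (retroviral pMSCV-puro, selected by IL-3 withdrawal plus puromycin 0.8 μg/mL, monoclonal) were seeded at 1,000 cells/well, dosed next day with 3-fold compound dilutions, and incubated 72 hours. CellTiter-Glo luminescence gave percent inhibition; IC50 by four-parameter logistic fit.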

[4] = biological target: T9, Ba/F3 cells EML4-ALK L1196M/G1202R (variant 1) (Homo sapiens, UniProt Q9UM73, G1202R/L1196M); test: Ba/F3 cell proliferation assay, EML4-ALK L1196M/G1202R (variant 1); format: cell-based; settings: 72 hours, CellTiter-Glo
T9 construct: echinoderm microtubule-associated protein-like 4 (EML4) gene and the ALK tyrosine kinase domain; host or cells: Ba/F3 (RIKEN), retroviral pMSCV-puro; the other entry of the earlier key: EML4 (Q9HC35, Echinoderm microtubule-associated protein-like 4)
In short: as §4

Ba/F3 cells TPM3-TRKA = biological target: T10, Ba/F3 cells TPM3-TRKA (Homo sapiens, UniProt P04629); test: Ba/F3 cell proliferation assay, TPM3-TRKA; format: cell-based; settings: 72 hours, CellTiter-Glo, read-out: TPM3-NTRK1-wt IC50
T10 construct: host or cells: Ba/F3 (RIKEN), retroviral pMSCV-puro; the other entry of the earlier key: TPM3 (P06753, Tropomyosin alpha-3 chain)
In short: as §4

[5] = test system: TPM3-NTRK1-wt IC50 / primary target IC50 (e.g. CD74-ROS1-wt); test: TRKA selectivity in Ba/F3 cells (TRKA potency divided by primary target potency); format: cell-based; settings: for TPM3-NTRK1-wt/CD74-ROS1-G2032R selectivity ratio: TRKA potency / CD74-ROS1-G2032R potency; for TPM3-NTRK1-wt/CD74-ROS1-wt selectivity ratio: TRKA potency / CD74-ROS1-wt potency; for TPM3-NTRK1-wt/EML4-ALK-L1196M-G1202R selectivity ratio: TRKA potency / EML4-ALK-L1196M-G1202R potency; for TPM3-NTRK1-wt/EML4-ALK-wt selectivity ratio: TRKA potency / EML4-ALK-wt potency
Experimental: TRKA selectivity was calculated by dividing a compound's TRKA potency by its primary target potency (e.g. TPM3-NTRK1-wt IC50/CD74-ROS1-wt IC50). Compound selectivity can be interpreted by binning ratio values: bin A for very high selectivity, ratio >30-fold; bin B for high selectivity, ratio >10-fold; bin C for moderate selectivity, ratio ≥1; and bin D for low selectivity, ratio <1. […] (nd=not determined).

T7 sequence (P08922 1883-2347 G2032R limits assumed): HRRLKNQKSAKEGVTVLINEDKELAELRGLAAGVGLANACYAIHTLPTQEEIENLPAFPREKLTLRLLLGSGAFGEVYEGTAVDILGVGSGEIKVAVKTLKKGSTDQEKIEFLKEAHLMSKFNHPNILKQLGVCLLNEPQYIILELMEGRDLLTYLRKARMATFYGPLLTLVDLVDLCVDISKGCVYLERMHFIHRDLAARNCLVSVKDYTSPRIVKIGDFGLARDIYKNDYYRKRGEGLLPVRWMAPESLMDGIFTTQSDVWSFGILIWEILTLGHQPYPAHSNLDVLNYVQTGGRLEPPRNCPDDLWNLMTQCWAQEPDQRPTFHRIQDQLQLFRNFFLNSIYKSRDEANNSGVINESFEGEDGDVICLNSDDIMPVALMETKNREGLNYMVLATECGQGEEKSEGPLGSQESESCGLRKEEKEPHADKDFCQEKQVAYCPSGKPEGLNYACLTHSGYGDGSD
T5 sequence (P04629 510-781 limits assumed): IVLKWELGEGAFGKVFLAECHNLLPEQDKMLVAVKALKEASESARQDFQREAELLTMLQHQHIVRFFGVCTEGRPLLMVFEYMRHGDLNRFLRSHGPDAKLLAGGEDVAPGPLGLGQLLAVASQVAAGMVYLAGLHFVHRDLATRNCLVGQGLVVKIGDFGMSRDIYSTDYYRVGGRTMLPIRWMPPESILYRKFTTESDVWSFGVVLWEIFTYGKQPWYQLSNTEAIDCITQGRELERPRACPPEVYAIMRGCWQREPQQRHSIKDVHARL
T10 sequence (P04629 510-796 limits assumed): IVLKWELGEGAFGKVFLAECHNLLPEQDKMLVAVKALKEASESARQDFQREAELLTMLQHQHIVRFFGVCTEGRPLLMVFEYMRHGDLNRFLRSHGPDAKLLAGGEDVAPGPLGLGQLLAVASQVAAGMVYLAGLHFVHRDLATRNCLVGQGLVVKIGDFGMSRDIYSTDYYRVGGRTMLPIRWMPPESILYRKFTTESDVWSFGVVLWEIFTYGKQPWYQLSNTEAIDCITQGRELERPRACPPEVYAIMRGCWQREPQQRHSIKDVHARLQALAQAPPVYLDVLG
T1 sequence (Q9UM73 1116-1392 limits assumed): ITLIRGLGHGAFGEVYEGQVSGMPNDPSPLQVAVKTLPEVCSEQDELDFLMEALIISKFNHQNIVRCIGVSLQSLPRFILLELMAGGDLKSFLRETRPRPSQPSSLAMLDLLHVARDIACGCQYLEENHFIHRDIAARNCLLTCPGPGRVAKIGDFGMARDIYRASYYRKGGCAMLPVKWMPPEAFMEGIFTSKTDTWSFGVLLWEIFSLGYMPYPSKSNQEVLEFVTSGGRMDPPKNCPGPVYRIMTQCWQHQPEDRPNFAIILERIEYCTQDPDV
T9 sequence (Q9UM73 with tags, fused parts or gaps L1196M/G1202R): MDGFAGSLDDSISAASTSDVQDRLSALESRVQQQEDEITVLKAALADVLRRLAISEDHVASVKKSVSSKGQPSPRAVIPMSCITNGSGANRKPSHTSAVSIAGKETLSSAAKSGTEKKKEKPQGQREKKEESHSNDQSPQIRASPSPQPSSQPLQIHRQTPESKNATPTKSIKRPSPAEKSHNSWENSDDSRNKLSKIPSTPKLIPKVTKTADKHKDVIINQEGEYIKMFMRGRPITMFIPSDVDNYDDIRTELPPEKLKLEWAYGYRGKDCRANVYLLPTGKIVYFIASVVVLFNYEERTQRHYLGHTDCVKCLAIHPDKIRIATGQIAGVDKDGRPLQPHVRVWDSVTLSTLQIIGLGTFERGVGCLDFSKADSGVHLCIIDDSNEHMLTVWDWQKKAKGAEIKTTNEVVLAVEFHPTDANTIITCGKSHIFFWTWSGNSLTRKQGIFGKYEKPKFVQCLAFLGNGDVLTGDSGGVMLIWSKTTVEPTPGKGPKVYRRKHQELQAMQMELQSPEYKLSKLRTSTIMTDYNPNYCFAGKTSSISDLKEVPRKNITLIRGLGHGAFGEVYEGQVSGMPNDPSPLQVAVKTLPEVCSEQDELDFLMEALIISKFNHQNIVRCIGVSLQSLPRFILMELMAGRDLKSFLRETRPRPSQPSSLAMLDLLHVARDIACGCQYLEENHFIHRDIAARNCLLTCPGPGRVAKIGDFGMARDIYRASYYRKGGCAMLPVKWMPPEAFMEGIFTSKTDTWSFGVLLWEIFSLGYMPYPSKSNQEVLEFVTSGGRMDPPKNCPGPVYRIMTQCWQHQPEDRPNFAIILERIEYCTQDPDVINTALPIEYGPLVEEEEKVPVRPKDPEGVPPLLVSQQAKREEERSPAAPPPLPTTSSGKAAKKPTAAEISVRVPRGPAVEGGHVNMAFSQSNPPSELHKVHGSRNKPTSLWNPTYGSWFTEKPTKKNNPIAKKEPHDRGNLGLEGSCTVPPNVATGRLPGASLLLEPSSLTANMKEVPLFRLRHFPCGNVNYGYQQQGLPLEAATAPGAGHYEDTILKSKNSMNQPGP
T2 sequence (Q9UM73 1116-1392 L1196M/G1202R limits assumed): as the sequence (Q9UM73 1116-1392 limits assumed) above, with L81M, G87R counted along it
T6 sequence (P08922 1883-2347 limits assumed): as the sequence (P08922 1883-2347 G2032R limits assumed) above, with R150G counted along it
T4 sequence (P08922 1945-2222 G2032R limits assumed): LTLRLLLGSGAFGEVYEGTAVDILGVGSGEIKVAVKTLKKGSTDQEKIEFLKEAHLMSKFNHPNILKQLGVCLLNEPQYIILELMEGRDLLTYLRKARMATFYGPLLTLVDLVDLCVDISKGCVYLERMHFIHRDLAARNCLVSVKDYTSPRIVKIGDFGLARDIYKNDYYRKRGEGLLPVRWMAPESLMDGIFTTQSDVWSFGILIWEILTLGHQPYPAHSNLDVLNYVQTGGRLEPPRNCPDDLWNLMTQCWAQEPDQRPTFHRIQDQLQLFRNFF
T3 sequence (P08922 1945-2222 limits assumed): as the sequence (P08922 1945-2222 G2032R limits assumed) above, with R88G counted along it
T8 sequence (Q9UM73 with tags, fused parts or gaps): as the sequence (Q9UM73 with tags, fused parts or gaps L1196M/G1202R) above, with M635L, R641G counted along it

| Compound | Ki (ALK-wt) [nM] | Ki (ALK L1196M/G1202R) [nM] | Ki (ROS1-wt) [nM] | Ki (ROS1-G2032R) [nM] | Ki (TRKA-wt) [nM] | IC50 [1] [nM] | IC50 [2] [nM] | IC50 [3] [nM] | IC50 [4] [nM] | IC50 (Ba/F3 cells TPM3-TRKA) [nM] | TPM3-NTRK1-wt/CD74-ROS1-G2032R selectivity ratio [5] | TPM3-NTRK1-wt/CD74-ROS1-wt selectivity ratio [5] | TPM3-NTRK1-wt/EML4-ALK-L1196M-G1202R selectivity ratio [5] | TPM3-NTRK1-wt/EML4-ALK-wt selectivity ratio [5] |
| --- | --- | --- | --- | --- | --- | --- | --- | --- | --- | --- | --- | --- | --- | --- |
| C[C@H]1Oc2cc(cnc2N)-c2c(cnn2C2COC2)Cc2nn(C)nc2-c2ccc(F)cc21 [Example 83, (19R)-16-fluoro-10,19-dimethyl-3-(oxetan-3-yl)-20-oxa-3,4,9,10,11,23-hexaazapentacyclo[19.3.1.0^2,^6.0^8,^12.0^13,^18]pentacosa-1(24),2(6),4,8,11,13,15,17,21(25),22-decaen-22-amine] | < 50 | < 50 | < 50 | < 50 | > 500 | 0.1 to 50 | 0.1 to 50 | 0.1 to 50 | 50 to 500 | 50 to 500 | A (bin A for very high selectivity, ratio >30-fold) | A (bin A for very high selectivity, ratio >30-fold) | C (bin C for moderate selectivity, ratio ≥1) | A (bin A for very high selectivity, ratio >30-fold) |
| CCn1ncc2c1-c1cnc(N)c(c1)OC(C)c1cc(F)cnc1-c1ccnn1C2 (stereo not drawn) [Example 37, 3-ethyl-16-fluoro-19-methyl-20-oxa-3,4,8,9,14,23-hexaazapentacyclo[19.3.1.0^2,^6.0^8,^12.0^13,^18]pentacosa-1(24),2(6),4,9,11,13,15,17,21(25),22-decaen-22-amine] | < 50 | 50 to 500 | < 50 | < 50 | > 500 | 0.1 to 50 | 0.1 to 50 | 0.1 to 50 | 50 to 500 | > 500 | A (bin A for very high selectivity, ratio >30-fold) | A (bin A for very high selectivity, ratio >30-fold) | B (bin B for high selectivity, ratio >10-fold) | A (bin A for very high selectivity, ratio >30-fold) |
| CCn1nnc2c1-c1cnc(N)c(c1)O[C@H](C)c1cc(F)ccc1-c1scnc1C2 [Example 53, (19R)-3-ethyl-16-fluoro-19-methyl-20-oxa-11-thia-3,4,5,9,23-pentaazapentacyclo[19.3.1.0^2,^6.0^8,^12.0^13,^18]pentacosa-1(24),2(6).4,8(12),9,13,15,17,21(25),22-decaen-22-amine] | < 50 | < 50 | < 50 | < 50 | > 500 | 0.1 to 50 | 0.1 to 50 | 0.1 to 50 | 50 to 500 | > 500 | A (bin A for very high selectivity, ratio >30-fold) | A (bin A for very high selectivity, ratio >30-fold) | C (bin C for moderate selectivity, ratio ≥1) | B (bin B for high selectivity, ratio >10-fold) |
